From PubChem BioAssay (NCI)
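In this assay, cells in 96-well plates receive the compound at five concentrations for 48 hours. Endpoints are linearly interpolated between the surrounding concentrations. At the GI50, growth is halved. Definition used: TGI = concentration required for complete inhibition of growth.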

Experiments:
Assay in all cases: DTP human tumour cell line panel, 48 h
PC-3 prostate = system: PC-3 prostate
MDA-MB-231 breast = system: MDA-MB-231 breast
NCI-H226 lung = system: NCI-H226 lung
OVCAR-4 ovarian = system: OVCAR-4 ovarian
A549 NSCLC = system: A549 NSCLC
OVCAR-3 ovarian = system: OVCAR-3 ovarian
UO-31 renal = system: UO-31 renal
HL-60(TB) leukemia = system: HL-60(TB) leukemia
SW-620 colon = system: SW-620 colon
MDA-MB-435 = system: MDA-MB-435
U251 CNS = system: U251 CNS
SK-MEL-28 melanoma = system: SK-MEL-28 melanoma
HCT-15 colon = system: HCT-15 colon
SK-MEL-5 melanoma = system: SK-MEL-5 melanoma
SK-OV-3 ovarian = system: SK-OV-3 ovarian
SNB-19 CNS = system: SNB-19 CNS
786-0 renal = system: 786-0 renal
NCI-H522 lung = system: NCI-H522 lung
SF-539 CNS = system: SF-539 CNS
OVCAR-5 ovarian = system: OVCAR-5 ovarian
SNB-75 CNS = system: SNB-75 CNS
SF-295 CNS = system: SF-295 CNS
RXF 393 renal = system: RXF 393 renal
SK-MEL-2 melanoma = system: SK-MEL-2 melanoma
MCF7 breast = system: MCF7 breast
HOP-62 NSCLC = system: HOP-62 NSCLC
HCC-2998 colon = system: HCC-2998 colon
T-47D breast = system: T-47D breast

Compound `Cc1c(-c2nnc(-c3ccc(F)cc3)o2)nnn1-c1ccnc2c(C(F)(F)F)cccc12` has a GI50 (PC-3 prostate) of 23.1 µM, a TGI (PC-3 prostate) of over 100 µM and a GI50 (MDA-MB-231 breast) of 29 µM. For the same compound, the TGI (MDA-MB-231 breast) was over 100 µM, the GI50 (NCI-H226 lung) was 67.2 µM and the TGI (NCI-H226 lung) was over 100 µM. It also gave a GI50 (OVCAR-4 ovarian) of 21 µM, a TGI (OVCAR-4 ovarian) of over 100 µM and a GI50 (A549 NSCLC) of 32.3 µM. It also gave a TGI (A549 NSCLC) of over 100 µM, a GI50 (OVCAR-3 ovarian) of 28.7 µM and a TGI (OVCAR-3 ovarian) of over 100 µM. It also gave a GI50 (UO-31 renal) of 60.3 µM, a TGI (UO-31 renal) of over 100 µM and a GI50 (HL-60(TB) leukemia) of over 100 µM. The TGI (HL-60(TB) leukemia) was over 100 µM, the GI50 (SW-620 colon) was 31.9 µM and the TGI (SW-620 colon) was over 100 µM. For the same compound, the GI50 (MDA-MB-435) was 77.6 µM, the TGI (MDA-MB-435) was over 100 µM and the GI50 (U251 CNS) was 30.4 µM. For the same compound, the TGI (U251 CNS) was over 100 µM, the GI50 (SK-MEL-28 melanoma) was 22.6 µM and the TGI (SK-MEL-28 melanoma) was 74.1 µM. It also gave a GI50 (HCT-15 colon) of over 100 µM, a TGI (HCT-15 colon) of over 100 µM and a GI50 (SK-MEL-5 melanoma) of 30.4 µM. The TGI (SK-MEL-5 melanoma) was over 100 µM, the GI50 (SK-OV-3 ovarian) was 30 µM and the TGI (SK-OV-3 ovarian) was over 100 µM. It also gave a GI50 (SNB-19 CNS) of 25.9 µM, a TGI (SNB-19 CNS) of 82.3 µM and a GI50 (786-0 renal) of 40.6 µM. For the same compound, the TGI (786-0 renal) was over 100 µM, the GI50 (NCI-H522 lung) was 84.7 µM and the TGI (NCI-H522 lung) was over 100 µM. For the same compound, the GI50 (SF-539 CNS) was 26.5 µM, the TGI (SF-539 CNS) was over 100 µM and the GI50 (OVCAR-5 ovarian) was 66.7 µM. The TGI (OVCAR-5 ovarian) was over 100 µM, the GI50 (SNB-75 CNS) was 19.5 µM and the TGI (SNB-75 CNS) was 61.2 µM. For the same compound, the GI50 (SF-295 CNS) was 29.6 µM, the TGI (SF-295 CNS) was over 100 µM and the GI50 (RXF 393 renal) was 21.6 µM. The TGI (RXF 393 renal) was 70.7 µM, the GI50 (SK-MEL-2 melanoma) was over 100 µM and the TGI (SK-MEL-2 melanoma) was over 100 µM. It also gave a GI50 (MCF7 breast) of 20.9 µM, a TGI (MCF7 breast) of over 100 µM and a GI50 (HOP-62 NSCLC) of 24.4 µM. For the same compound, the TGI (HOP-62 NSCLC) was 78.4 µM, the GI50 (HCC-2998 colon) was over 100 µM and the TGI (HCC-2998 colon) was over 100 µM. For the same compound, the GI50 (T-47D breast) was 20 µM.
